Laboratory results as given in US20070098649A1, “Method and composition for controlling oral pathogens” (priority 2004, published 2007).
Structures can show the parent of a compound that is named as a salt. Where two headings read alike, the source gives them in different places. Values belong to the compound of their own block, whether it stands above or below them.

How the values were obtained:
[1] = system: Fusobacterium nucleatum; test: MIC microdilution assay; format: cell-based; settings: for MIC: Fusobacterium nucleatum
[2] = system: Streptococcus gordonii; test: MIC microdilution assay; format: cell-based; settings: for MIC: Streptococcus gordonii
[3] = system: S. aureus, E. coli, P. aeruginosa, and S. sanguis; settings: isolated from H. canadensis; cited from earlier work
[4] = system: Actinobacillus actinomycetemcomitans; test: MIC microdilution assay; format: cell-based; settings: for MIC: Aggregatibacter actinomycetemcomitans
[5] = system: Streptococcus mutans; test: MIC microdilution assay; format: cell-based; settings: for MIC: Streptococcus mutans
[6] = system: Porphymonas gingivalis; test: MIC microdilution assay; format: cell-based; settings: for MIC: Porphyromonas gingivalis
[7] = system: test bacteria; test: MIC microdilution assay, statements on all test bacteria; format: cell-based; settings: read-out: Concentration without growth inhibition of the test bacteria (MIC bound)
[8] = system: A. actinomycetemcomitans; test: Relative cell surface hydrophobicity (hexanes partition); format: cell-based; settings: agent alone 5 μg ml^−1
[9] = system: Staphylococcus aureus; test: MIC microdilution assay; format: cell-based; settings: S. aureus, agent alone, read-out: MIC of the antimicrobial agents alone
[10] = system: oral pathogens; test: Combination determination, statements on the oral pathogens; format: cell-based; settings: berberine hydrochloride / berberine (B-CG and B-S)
Method: (§1) The alkaloids were tested in pair-wise combinations (fractional inhibitory concentrations, FIC) against all the bacteria to determine whether interactions were antagonistic (FIC>1), additive (0.5<FIC<1), or synergistic (FIC<0.5). The FIC was calculated by the following: (MIC Acombination/MIC Aalone)+(MIC Bcombination/MIC Balone). Where A represents compound 1 and B represents compound 2. […] In the case of A. actinomycetemcomitans and P. aeruginosa, CHX was used at 0.78 to 50 μg ml^−1. Berberine (B-CG and B-S) was used at concentrations 0.9 to 250 μg ml^−1. The antibacterial efficacy of berberine (1.95 to 500 μg ml^−1) was tested in combination against P. aeruginosa with CHX (0.78 to 50 μg ml^−1) (Sigma Chemicals) and the polymyxin antibiotic Col (0.04 to 25 μg ml^−1) (Sigma Chemicals). The plates were incubated for 24 hours.

[11] = system: S. mutans; test: Relative cell surface hydrophobicity (hexanes partition); format: cell-based; settings: agent alone 5 μg ml^−1
[12] = system: Streptococcus mutans; test: Combination determination (FIC, MIC in combination); format: cell-based; settings: S. mutans
Method: as §1
CHX was diluted from left to right at 10 to 0.08 μg ml^−1 ([…] 1 to 8), berberine was diluted from top to bottom at 250 to 0.09 μg ml^−1 ([…] 1 to 8). Column 9 was the cell control, column 10 was berberine alone (250 to 0.09 μg ml^−1); and column 11 was CHX alone (10 to 0.08 μg ml^−1). Row H was the solvent control (8% DMSO, H1 to H8). Column 12 was the media blank. The dilution assay was designed such that A1 contained the highest concentration of both agents (berberine 250 μg ml^−1 and CHX 10 μg ml^−1). The final concentration of berberine in wells A2 to A8 was […]. The FIC value was calculated from well C6. FIC was calculated by: (MIC Acombination/MIC Aalone)+(MIC Bcombination/MIC Balone).

[13] = system: F. nucleatum; test: Viability assessment (bactericidal activity); format: cell-based
Method: Two representative organisms, S. mutans and F. nucleatum, were used in this study. […] Aliquots of 4 ml of agent, prepared in sterile water, were placed into sterile test tubes and 1 ml of adjusted cells was added. The control consisted of 4 ml of PBS and 1 ml of cells. Samples were removed at 0, 15, 30, and 60 minutes, serial dilutions were performed, and the appropriate dilutions plated out. The plates were incubated at 37° C. under appropriate atmospheric conditions for up to 72 hours. Viable colony counts were determined and compared to nontreated control Percentage kill was calculated using the formula: ([…]×100. Log reduction was also calculated on Log10 transformed data. Effect of Berberine on Cell Surface Hydrophobicity

[14] = system: Escherichia coli; test: MIC microdilution assay; format: cell-based; settings: E. coli, agent alone, read-out: MIC of the antimicrobial agents alone
[15] = system: test bacteria; test: Relative cell surface hydrophobicity, statements on the test bacteria; format: cell-based; settings: summary of Table 12
[16] = system: S. gordonii; test: Relative cell surface hydrophobicity (hexanes partition); format: cell-based; settings: agent alone 5 μg ml^−1
[17] = system: P. gingivalis; test: as above; format: cell-based; settings: agent alone 5 μg ml^−1
[18] = system: F. nucleatum; test: as above; format: cell-based; settings: agent alone 5 μg ml^−1
[19] = system: Escherichia coli; test: Combination determination (FIC, MIC in combination); format: cell-based; settings: E. coli
Method: as §1

[20] = system: Actinobacillus actinomycetemcomitans; test: as above; format: cell-based; settings: A. actinomycetemcomitans grown under anaerobic conditions; berberine (B-CG) combined with CHX, Tet or Dox; MIC of the named agent in the combination
Method: as §1

[21] = system: Porphymonas gingivalis; test: as above; format: cell-based; settings: P. gingivalis
Method: as §1

[22] = system: Streptococcus gordonii; test: as above; format: cell-based; settings: S. gordonii
Method: as §1

[23] = system: Fusobacterium nucleatum; test: as above; format: cell-based; settings: F. nucleatum
Method: as §1

[24] = system: Staphylococcus aureus; test: as above; format: cell-based; settings: S. aureus; for Approximate amount of antibiotic required when combined with berberine relative to when the agent is used alone: fraction of the amount alone, HCl
Method: as §1

[25] = read-out: MIC of Goldenseal Alkaloids Against Selected Oral Pathogens
[26] = berberine (B-CG) combined with CHX, Tet or Dox, MIC of the named agent in the combination
[27] = berberine hydrochloride / chloride

MIC of Goldenseal Alkaloids Against Selected Oral Pathogens ([1]; Fn, F. nucleatum): >250 µg/mL
MIC of Goldenseal Alkaloids Against Selected Oral Pathogens ([2]; Sg, S. gordonii): >250 µg/mL
MIC of Goldenseal Alkaloids Against Selected Oral Pathogens ([4]; Aa, A. actinomycetemcomitans): >250 µg/mL
MIC of Goldenseal Alkaloids Against Selected Oral Pathogens ([5]; Sm, S. mutans): >250 µg/mL
MIC of Goldenseal Alkaloids Against Selected Oral Pathogens ([6]; Pg, P. gingivalis): >250 µg/mL
Structure (SMILES): COc1ccc(C[C@@H]2c3cc4c(cc3CCN2C)OCO4)c(C=O)c1OC [Canadaline, canadaline]
Antibacterial activity [3]: antimicrobial at comparable concentrations to berberine

Structure (SMILES): COc1ccc2c(c1OC)CN1CCc3cc4c(cc3[C@@H]1C2)OCO4 [Canadine, canadine]
MIC [1, 25]: > 500 µg/mL
MIC [2, 25]: > 500 µg/mL
Antibacterial activity [3]: antimicrobial at comparable concentrations to berberine
MIC [4, 25]: > 500 µg/mL
MIC [5, 25]: > 500 µg/mL
MIC [7]: > 250 µg/mL
MIC [6, 25]: > 500 µg/mL

Structure (SMILES): C[C@H]1c2cccc(O)c2C(=O)C2=C(O)[C@]3(O)C(=O)C(C(N)=O)=C(O)[C@@H](N(C)C)[C@@H]3[C@@H](O)[C@@H]21 [Dox, doxycycline HCl]
MIC ([1]; F. nucleatum, agent alone, read-out: MIC of the antimicrobial agents alone): 0.04 µg/mL
Typical reduction scores on relative cell surface hydrophobicity [8]: −4.1%
MIC [9]: 1.53 µg/mL
Growth inhibition effect when combined with berberine [10]: synergistic
MIC ([2]; S. gordonii, agent alone, read-out: MIC of the antimicrobial agents alone): 0.31 µg/mL
Typical reduction scores on relative cell surface hydrophobicity [11]: 8.1%
MIC of the antimicrobial agents in combination [12, 26]: 0.20 µg/mL
Approximate amount of antibiotic required when combined with berberine relative to when the agent is used alone ([12]; fraction of the amount alone): ¼
Reduction of the concentration required for comparable reduction in viability when used in combination ([13]; Dox (5 μg ml^−1), berberine (250 μg ml^−1)): one-half
Viability after 60 min exposures (mean Log10 reduction of CFU) ([13]; Dox (10)): 1.56 Log10
MIC ([4]; A. actinomycetemcomitans grown under anaerobic conditions, agent alone, read-out: MIC of the antimicrobial agents alone): 6.25 µg/mL
MIC ([5]; S. mutans, agent alone, read-out: MIC of the antimicrobial agents alone): 0.78 µg/mL
MIC [14]: 1.53 µg/mL
Effect on the relative hydrophobicity of the cells [15]: did not appear to affect
Typical reduction scores on relative cell surface hydrophobicity [16]: 7.7%
Typical reduction scores on relative cell surface hydrophobicity [17]: 1.7%
MIC ([6]; P. gingivalis, agent alone, read-out: MIC of the antimicrobial agents alone): 0.08 µg/mL
Typical reduction scores on relative cell surface hydrophobicity [18]: −3.5%
MIC of the antimicrobial agents in combination [19, 26]: 0.77 µg/mL
Growth inhibition effect when combined with berberine [19, 27]: synergistic
Approximate amount of antibiotic required when combined with berberine relative to when the agent is used alone ([19]; fraction of the amount alone): ½
MIC of the antimicrobial agents in combination [20]: 6.25 µg/mL
MIC of the antimicrobial agents in combination [21, 26]: 0.01 µg/mL
Approximate amount of antibiotic required when combined with berberine relative to when the agent is used alone ([21]; fraction of the amount alone): ¼
MIC of the antimicrobial agents in combination [22, 26]: 0.08 µg/mL
Approximate amount of antibiotic required when combined with berberine relative to when the agent is used alone ([22]; fraction of the amount alone): <¼
MIC of the antimicrobial agents in combination [23, 26]: 0.10 µg/mL
Approximate amount of antibiotic required when combined with berberine relative to when the agent is used alone ([23]; fraction of the amount alone): ¼
MIC of the antimicrobial agents in combination [24, 26]: 0.39 µg/mL
Growth inhibition effect when combined with berberine [24, 27]: synergistic
Approximate amount of antibiotic required when combined with berberine relative to when the agent is used alone ([24]; listed as Doxycycline (HCL)): ⅕
Approximate amount of antibiotic required when combined with berberine relative to when the agent is used alone ([24]; listed as Doxycycline-HCl): ½

Structure (SMILES): COc1ccc2c(c1OC)C(=O)O[C@@H]2[C@H]1c2cc3c(cc2CCN1C)OCO3 [Hydrastine, hydrastine]
MIC [1, 25]: > 500 µg/mL
MIC [2, 25]: > 500 µg/mL
MIC [4, 25]: > 500 µg/mL
MIC [5, 25]: > 500 µg/mL
MIC [7]: > 500 µg/mL
MIC [6, 25]: > 500 µg/mL
